The record followed here is patent US9920010B2, “CXCR7 receptor modulators” (IDORSIA PHARMACEUTICALS LTD, priority 2013, dated 2018).

For the assay, the target named is T1, CXCR7 (Homo sapiens, UniProt P25106).
T1 construct: host or cells: CHO-K1 (PathHunter CHO-K1 CXCR7 b-arrestin cell line, stably transfected)
Put plainly: PathHunter CHO-K1 CXCR7 b-arrestin recruitment assay (CXCR7 agonistic activity). Type of assay: cell-based. The settings on record: PathHunter CHO-K1 CXCR7 b-arrestin cell line. The method, boiled down:
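Stable CHO-K1 line with C-terminally ProLink-tagged CXCR7 and β-arrestin 2–EA fusion; β-arrestin recruitment restores β-gal activity, read by chemiluminescence after 1 h RT detection. Cells seeded 24 h, starved in OPTIMEM 3–4 h, exposed to compounds 90 min at 37 °C in HBSS/HEPES/BSA. Geometric-mean EC50 from repeated measurements.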

T1 sequence (P25106 whole entry): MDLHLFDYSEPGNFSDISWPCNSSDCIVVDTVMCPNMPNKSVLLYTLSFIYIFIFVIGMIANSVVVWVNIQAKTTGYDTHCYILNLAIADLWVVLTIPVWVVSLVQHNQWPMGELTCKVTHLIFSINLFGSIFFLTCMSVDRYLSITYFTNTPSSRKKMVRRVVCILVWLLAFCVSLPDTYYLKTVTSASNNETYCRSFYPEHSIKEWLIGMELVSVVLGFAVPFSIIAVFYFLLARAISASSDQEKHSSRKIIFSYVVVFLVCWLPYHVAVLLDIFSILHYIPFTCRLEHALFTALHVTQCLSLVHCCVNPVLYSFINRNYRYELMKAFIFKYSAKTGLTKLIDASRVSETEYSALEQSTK
T1 sequence (P32121 whole entry partner): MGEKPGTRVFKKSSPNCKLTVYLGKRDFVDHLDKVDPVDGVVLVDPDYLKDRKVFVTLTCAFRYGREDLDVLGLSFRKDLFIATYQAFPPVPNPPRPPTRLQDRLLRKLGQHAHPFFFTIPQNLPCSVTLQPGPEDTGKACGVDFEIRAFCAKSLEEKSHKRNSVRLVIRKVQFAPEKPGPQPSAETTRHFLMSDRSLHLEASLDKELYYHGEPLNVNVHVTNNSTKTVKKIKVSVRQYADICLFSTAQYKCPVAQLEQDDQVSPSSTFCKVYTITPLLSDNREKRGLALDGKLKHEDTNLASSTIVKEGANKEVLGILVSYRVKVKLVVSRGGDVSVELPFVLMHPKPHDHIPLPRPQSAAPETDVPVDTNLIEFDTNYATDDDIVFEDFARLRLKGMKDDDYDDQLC

Molecule `CN(C)CCN(Cc1ccccc1)C(=O)CNc1cccc2c1CN(CC1CC1)C2` [Example 209, N-Benzyl-2-(2-cyclopropylmethyl-2,3-dihydro-1H-isoindol-4-ylamino)-N-(2-dimethylamino-ethyl)-acetamide] yielded a concentration giving a half-maximal response (EC50) of 51 nM.
`CN(C)CCN(Cc1cccc(C(F)(F)F)n1)C(=O)CNc1cccc2c1CCN(CC1CC1)C2` [Example 46, 2-(2-Cyclopropylmethyl-1,2,3,4-tetrahydro-isoquinolin-5-ylamino)-N-(2-dimethylamino-ethyl)-N-(6-trifluoromethyl-pyridin-2-ylmethyl)-acetamide] came in with an EC50 of 3 nM.
The figure for `COCCN1CCc2c(/C=C/C(=O)N(Cc3ccccc3C(F)(F)F)CC(O)COC)cccc2C1` (centres unmarked) [Example 321, (E)-N-(2-Hydroxy-3-methoxy-propyl)-3-[2-(2-methoxy-ethyl}-1,2,3,4-tetrahydro-isoquinolin-5-yl]-N-(2-trifluoromethyl-benzyl)-acrylamide] is 244 nM.
`CN(C)CCN(Cc1ccccc1C(F)(F)F)C(=O)CNc1cccc2c1CN(CC(C)(C)C)CC2` [compound 563, N-(2-Dimethylamino-ethyl)-2-[2-(2,2-dimethyl-propyl)-1,2,3,4-tetrahydro-isoquinolin-8-ylamino]-N-(2-trifluoromethyl-benzyl)-acetamide] showed an EC50 of 26 nM.
`CN(C)CCN(Cc1ccccc1C(F)(F)F)C(=O)CNc1cccc2c1CCN(c1ccccn1)C2` [Example 374, N-(2-Dimethylamino-ethyl)-2-(2-pyridin-2-yl-1,2,3,4-tetrahydro-isoquinolin-5-ylamino)-N-(2-trifluoromethyl-benzyl)-acetamide]: the EC50 stood at 5 nM.
As to `CCN1CCc2cccc(NCC(=O)N(Cc3ccccc3C(F)(F)F)C3CCN(C)CC3)c2C1` [compound 492, 2-(2-Ethyl-1,2,3,4-tetrahydro-isoquinolin-8-ylamino)-N-(1-methyl-piperidin-4-yl)-N-(2-trifluoromethyl-benzyl)-acetamide], the 50% effective concentration (EC50) is 41 nM.
Molecule `CN(C)CCN(CCc1ccccc1C(F)(F)F)C(=O)CNc1cccc2c1CCN(CC1CC1)C2` [Example 57, 2-(2-Cyclopropylmethyl-1,2,3,4-tetrahydro-isoquinolin-5-ylamino)-N-(2-dimethylamino-ethyl)-N-[2-(2-trifluoromethyl-phenyl)-ethyl]-acetamide] displayed an EC50 of 24 nM.
`CN(C)CCN(Cc1ccccc1C(F)(F)F)C(=O)CNc1cccc2c1CCN(CC#N)C2` [Example 364, 2-(2-Cyanomethyl-1,2,3,4-tetrahydro-isoquinolin-5-ylamino)-N-(2-dimethylamino-ethyl)-N-(2-trifluoromethyl-benzyl)-acetamide] displayed an EC50 of 44 nM.
The molecule `CCN(Cc1ccccc1Cl)C(=O)/C=C/c1cccc2c1CCN(CC1CC1)C2` [compound 139] had an EC50 of 55 nM.
`CN(C)CCN(Cc1ccccc1Cl)C(=O)CNc1cccc2c1CN(CC1CC1)CC2(C)C` [compound 197] yielded an EC50 of 257 nM.
`CCC(=O)N1CCc2c(cccc2NCC(=O)N(CCN(C)C)Cc2ccc(Cl)cc2)C1` [Example 19, N-(4-Chloro-benzyl)-N-(2-dimethylamino-ethyl)-2-(2-propionyl-1,2,3,4-tetrahydro-isoquinolin-5-ylamino)-acetamide] yielded a concentration giving a half-maximal response (EC50) of 102 nM.
The figure for `O=C(CNc1cccc2c1CCN(CC1CC1)C2)N(CCN1CCCCCC1)Cc1ccccc1C(F)(F)F` [Example 218, N-(2-Azepan-1-yl-ethyl)-2-(2-cyclopropylmethyl-1,2,3,4-tetrahydro-isoquinolin-5-ylamino)-N-(2-trifluoromethyl-benzyl)-acetamide] is 2 nM.
Take `CCN1CCc2cccc(NCC(=O)N(CCN(C)C)Cc3ncccc3C)c2C1` [compound 525, N-(2-Dimethylamino-ethyl)-2-(2-ethyl-1,2,3,4-tetrahydro-isoquinolin-8-ylamino)-N-(3-methyl-pyridin-2-ylmethyl)-acetamide]: the EC50 worked out at 41 nM.
The same measure for `CN(C)CCN(Cc1ccccc1C(F)(F)F)C(=O)CNc1cccc2c1C(C)(C)CN(CC1CC1)C2` [Example 91, 2-(2-Cyclopropylmethyl-4,4-dimethyl-1,2,3,4-tetrahydro-isoquinolin-5-ylamino)-N-(2-dimethylamino-ethyl)-N-(2-trifluoromethyl-benzyl)-acetamide]: 1 nM; for `C#CCN(C)CCN(Cc1ccccc1C(F)(F)F)C(=O)CNc1cccc2c1CCN(CC1CC1)C2` [Example 246, 2-(2-Cyclopropylmethyl-1,2,3,4-tetrahydro-isoquinolin-5-ylamino)-N-[2-(methyl-prop-2-ynyl-amino)-ethyl]-N-(2-trifluoromethyl-benzyl)-acetamide]: 14 nM; for `CC(C)(C)OC(=O)N1CCC(N(Cc2ccccc2C(F)(F)F)C(=O)CNc2cccc3c2CCN(CC2CC2)C3)C1` (centres unmarked) [Example 254, 3-[[2-(2-Cyclopropylmethyl-1,2,3,4-tetrahydro-isoquinolin-5-ylamino)-acetyl]-(2-trifluoromethyl-benzyl)-amino]-pyrrolidine-1-carboxylic acid tert-butyl ester]: 161 nM.
The figure for `CCN1CCc2c(cccc2NCC(=O)N(CCN(C)C)Cc2ccccc2C(F)(F)F)C1` [compound 135, N-(2-Dimethylamino-ethyl)-2-(2-ethyl-1,2,3,4-tetrahydro-isoquinolin-5-ylamino)-N-(2-trifluoromethyl-benzyl)-acetamide] is 9 nM; for `CNCCN(Cc1ncccc1C(F)(F)F)C(=O)CNc1cccc2c1CCN(C(=O)CC(C)(C)C)C2` [compound 418] it is 148 nM; for `O=C(CNc1cccc2c1CCN(CC1CC1)C2)N(Cc1ccccc1C(F)(F)F)CC1(O)CCCC1` [Example 243, 2-(2-Cyclopropylmethyl-1,2,3,4-tetrahydro-isoquinolin-5-ylamino)-N-(1-hydroxy-cyclopentylmethyl)-N-(2-trifluoromethyl-benzyl)-acetamide] it is 8 nM.
As to `COC(=O)N1CCc2cccc(OCC(=O)N(CCN(C)C)Cc3ccccc3)c2C1` [Example 204, 8-{[Benzyl-(2-dimethylamino-ethyl)-carbamoyl]-methoxy}-3,4-dihydro-1H-isoquinoline-2-carboxylic acid methyl ester], the EC50 was found to be 40 nM.
`COCCN1CCc2c(cccc2NCC(=O)N(CCN(C)C)Cc2ncccc2C(F)(F)F)C1` [Example 371, N-(2-Dimethylamino-ethyl)-2-[2-(2-methoxy-ethyl)-1,2,3,4-tetrahydro-isoquinolin-5-ylamino]-N-(3-trifluoromethyl-pyridin-2-ylmethyl)-acetamide] returned an EC50 of 16 nM.
Turning to `CNCCN(Cc1ncccc1C(F)(F)F)C(=O)CNc1cccc2c1CCN(C(=O)C(C)C)C2` [compound 412, 2-(2-Isobutyryl-1,2,3,4-tetrahydro-isoquinolin-5-ylamino)-N-(2-methylamino-ethyl)-N-(3-trifluoromethyl-pyridin-2-ylmethyl)-acetamide], the midpoint of the response, the EC50, lay at 20 nM.
Molecule `CN1CCC(N(Cc2ccccc2C(F)(F)F)C(=O)CCc2cccc3c2CCN(CC2CC2)C3)CC1` [compound 160, 3-(2-Cyclopropylmethyl-1,2,3,4-tetrahydro-isoquinolin-5-yl)-N-(1-methyl-piperidin-4-yl)-N-(2-trifluoromethyl-benzyl)-propionamide] displayed a half-maximal effective concentration (EC50) of 15 nM.
Turning to `CNCCN(Cc1ccccc1C(F)(F)F)C(=O)CNc1cccc2c1CCN(C(=O)C(C)C)C2` [compound 387, 2-(2-Isobutyryl-1,2,3,4-tetrahydro-isoquinolin-5-ylamino)-N-(2-methylamino-ethyl)-N-(2-trifluoromethyl-benzyl)-acetamide], it took 12 nM to reach a half-maximal effect (EC50).
`CC1Cc2c(cccc2NCC(=O)N(CCN(C)C)Cc2ccccc2C(F)(F)F)CN1CC1CC1` (racemic) [Example 212, rac-2-((2-(Cyclopropylmethyl)-3-methyl-1,2,3,4-tetrahydroisoquinolin-5-yl)amino)-N-(2-(dimethylamino)ethyl)-N-(2-(trifluoromethyl)benzyl)acetamide]: the response was half-maximal at 6 nM (EC50).
Take `CCN(CC)CCN(Cc1ccccc1C(F)(F)F)C(=O)CNc1cccc2c1CN(CC)CC2` [compound 514, N-(2-Diethylamino-ethyl)-2-(2-ethyl-1,2,3,4-tetrahydro-isoquinolin-8-ylamino)-N-(2-trifluoromethyl-benzyl)-acetamide]: a half-maximal effect (EC50) was put at 6 nM.
The same measure for `CNCCN(Cc1ncccc1C(F)(F)F)C(=O)CNc1cccc2c1CCN(C(=O)C1CCC1)C2` [compound 414, 2-(2-Cyclobutanecarbonyl-1,2,3,4-tetrahydro-isoquinolin-5-ylamino)-N-(2-methylamino-ethyl)-N-(3-trifluoromethyl-pyridin-2-ylmethyl)-acetamide]: 37 nM; for `CNCCN(Cc1ccccc1C(F)(F)F)C(=O)CNc1cccc2c1CCN(C(=O)NC(C)(C)C)C2` [compound 406]: 80 nM.
`CCN(CC)CCN(Cc1ccccc1)C(=O)CNc1cccc2c1CN(CC)CC2` [compound 490, N-Benzyl-N-(2-diethylamino-ethyl)-2-(2-ethyl-1,2,3,4-tetrahydro-isoquinolin-8-ylamino)-acetamide] showed a 50% effective concentration (EC50) of 21 nM.
The same measure for `O=C(CNc1cccc2c1CCN(CC1CC1)C2)N(Cc1ccccc1)C1CCNC1` (racemic) [Example 178, rac-N-Benzyl-2-(2-cyclopropylmethyl-1,2,3,4-tetrahydro-isoquinolin-5-ylamino)-N-pyrrolidin-3-yl-acetamide]: 25 nM.
With `CCN1CCc2cccc(NCC(=O)N(CCCN(C)C)Cc3ccccc3)c2C1` [compound 507], the EC50 worked out at 74 nM.
As to `CCOC(=O)[C@@H]1C[C@H]1CN(Cc1ccccc1C(F)(F)F)C(=O)CNc1cccc2c1CCN(CC1CC1)C2` (racemic) [Example 81, rac-trans-2-{[[2-(2-Cyclopropylmethyl-1,2,3,4-tetrahydro-isoquinolin-5-ylamino)-acetyl]-(2-trifluoromethyl-benzyl)-amino]-methyl}-cyclopropanecarboxylic acid ethyl ester], a half-maximal effect (EC50) was put at 126 nM.

In general, EC50 refers to the concentration that produces a half-maximal response. A high value points to weaker potency.
